Source: patent publication US7902204B2 (priority 2003, dated 2011)

Tested on: HIV-1 single-round infectious reporter virus
Assay: Single-round infectious HIV-1 luciferase reporter virus infection of HeLa CD4 CCR5 cells
Type: cell-based
Conditions: Human immunodeficiency virus 1, HeLa-CD4/CCR5, 72 h, read-out: EC50 Group from Table 1
Procedure: • Virus production—Human embryonic Kidney cell line, 293, propagated in Dulbecco's Modified Eagle Medium (Life Technologies, Gaithersburg, Md.) containing 10% fetal Bovine serum (FBS, Sigma, St. Louis, Mo.). • Virus infection—Human epithelial cell line, HeLa, expressing the HIV-1 receptors CD4 and CCR5 was propagated in Dulbecco's Modified Eagle Medium (Life Technologies, Gaithersburg, Md.) containing 10% fetal Bovine serum (FBS, Sigma, St. Louis, Mo.) and supplemented with 0.2 mg/mL Geneticin (Life Technologies, Gaithersburg, Md.) and 0.4 mg/mL Zeocin (Invitrogen, Carlsbad, Calif.). Virus-Single-round infectious reporter virus was produced by co-transfecting human embryonic Kidney 293 cells with an HIV-1 envelope DNA expression vector and a proviral cDNA containing an envelope deletion mutation and the luciferase reporter gene inserted in place of HIV-1 nef sequences (Chen et al, Ref 41). Transfections were performed using lipofectAMINE PLUS reagent as described by the manufacturer (Life Technologies, Gaithersburg, Md.). Experiment • 1. Compound was added to HeLa CD4 CCR5 cells plated in 96 well plates at a cell density of 1×10^4 cells per well in 100 μl Dulbecco's Modified Eagle Medium containing 10% fetal Bovine serum at a concentration of <20 μM. • 2. 100 μl of single-round infectious reporter virus in Dulbecco's Modified Eagle Medium was then added to the plated cells and compound at an approximate multiplicity of infection (MOI) of 0.01, resulting in a final volume of 200 μl per well and a final compound concentration of <10 μM. • 3. Samples were harvested 72 h after infection. • 4. Viral infection was monitored by measuring luciferase expression from viral DNA in the infected cells using a luciferase reporter gene assay kit (Roche Molecular Biochemicals, Indianapolis, Ind.). Infected cell supernatants were removed and 50 μl of Dulbecco's Modified Eagle Medium (without phenol red) and 50 μl of luciferase assay reagent reconstituted as described by the manufacturer (Roche Molecular Biochemicals, Indianapolis, Ind.) was added per well. Luciferase activity was then quantified by measuring luminescence using a Wallac microbeta scintillation counter. • 5. The percent inhibition for each compound was calculated by quantifying the level of luciferase expression in cells infected in the presence of each compound as a percentage of that observed for cells infected in the absence of compound and subtracting such a determined value from 100. • 6. An EC50 provides a method for comparing the antiviral potency of the compounds of this invention. The effective concentration for fifty percent inhibition (EC50) was calculated with the Microsoft Excel Xlfit curve fitting software. For each compound, curves were generated from percent inhibition calculated at 10 different concentrations by using a four paramenter logistic model (model 205). Table 1 is the key for the data in Tables 2-4.

Row | Structure (SMILES) | EC50
1 | N#CC(C(=O)c1c[nH]c2c(Cl)ncnc12)N1CCN(C(=O)c2ccccc2)CC1 (stereo not shown) [Example 1, 2-(4-Benzoyl-piperazin-1-yl)-3-(4-chloro-5H-pyrrolo [3,2-d]pyrimidin-7-yl)-3-oxo-propionitrile] | < 1000 nM
2 | O=C(C(=O)N1CCN(C(=O)c2ccccc2)CC1)c1c[nH]c2c(Cl)ncnc12 [Example 2, 1-(4-Benzoyl-piperazin-1-yl)-2-(4-chloro-5H-pyrrolo[3,2-d]pyrimidin-7-yl)-ethane-1,2-dione] | < 1000 nM
3 | Cc1ccn(-c2ncnc3c(C(=O)C(=O)N4CCN(C(=O)c5ccccc5)CC4)c[nH]c23)n1 [Example 3, 1-(4-Benzoyl-piperazin-1-yl)-2-[4-(3-methyl-pyrazol-1-yl)-5H-pyrrolo[3,2-d]pyrimidin-7-yl]-ethane-1,2-dione] | < 1000 nM
4 | Cc1cnn(-c2ncnc3c(C(=O)C(=O)N4CCN(C(=O)c5ccccc5)CC4)c[nH]c23)c1 [Example 4, 1-(4-Benzoyl-piperazin-1-yl)-2-[4-(4-methyl-pyrazol-1-yl)-5H-pyrrolo[3,2-d]pyrimidin-7-yl]-ethane-1,2-dione] | < 1000 nM
5 | COc1ncnc2c(C(=O)C(=O)N3CCN(C(=O)c4ccccc4)CC3)c[nH]c12 [Example 5, 1-(4-Benzoyl-piperazin-1-yl)-2-(4-methoxy-5H-pyrrolo[3,2-d]pyrimidin-7-yl)-ethane-1,2-dione] | < 1000 nM
6 | O=C(C(=O)N1CCN(C(=O)c2ccccc2)CC1)c1c[nH]c2c(-n3cccn3)ncnc12 [Example 6, 1-(4-Benzoyl-piperazin-1-yl)-2-(4-pyrazol-1-yl-5H -pyrrolo[3,2-d]pyrimidin-7-yl)-ethane-1,2-dione] | < 1000 nM
7 | Cc1ncn(-c2ncnc3c(C(=O)C(=O)N4CCN(C(=O)c5ccccc5)CC4)c[nH]c23)n1 [Example 7, 1-(4-Benzoyl-piperazin-1-yl)-2-[4-(3-methyl-[1,2,4]triazol-1-yl)-5H-pyrrolo[3,2-d]pyrimidin-7-yl]-ethane-1,2-dione] | < 1000 nM
8 | O=C(C(=O)N1CCN(C(=O)c2ccccc2)CC1)c1c[nH]c2c(-n3nccn3)ncnc12 [Example 8, 1-(4-(2H-1,2,3-Triazol-2-yl)-5H-pyrrolo[3,2-d]pyrimidin-7-yl)-2-(4-benzoylpiperazin-1-yl)ethane-1,2-dione] | < 1000 nM
9 | O=C(O)c1ccn(-c2ncnc3c(C(=O)C(=O)N4CCN(C(=O)c5ccccc5)CC4)c[nH]c23)n1 [Example 9, 1-{7-[2-(4-Benzoyl-piperazin-1-yl)-2-oxo-acetyl]-5H-pyrrolo[3,2-d]pyrimidin-4-yl}-1H-pyrazole-3-carboxylic Acid] | < 1000 nM
10 | CCOc1ncnc2c(C(=O)C(=O)N3CCN(C(=O)c4ccccc4)CC3)c[nH]c12 [Example 10, 1-(4-Benzoylpiperazin-1-yl)-2-(4-ethoxy-5H-pyrrolo[3,2-d]pyrimidin-7-yl)ethane-1,2-dione] | < 1000 nM
11 | CC(=O)c1ncnc2c(C(=O)C(=O)N3CCN(C(=O)c4ccccc4)CC3)c[nH]c12 [Example 11, 1-(4-Acetyl-5H-pyrrolo[3,2-d]pyrimidin-7-yl)-2-(4-benzoylpiperazin-1-yl)ethane-1,2-dione] | < 1000 nM
12 | N#Cc1ncnc2c(C(=O)C(=O)N3CCN(C(=O)c4ccccc4)CC3)c[nH]c12 [Example 12, 7-(2-(4-Benzoylpiperazin-1-yl)-2-oxoacetyl)-5H-pyrrolo[3,2-d]pyrimidine-4-carbonitrile] | < 1000 nM
13 | CN(C)C(=O)c1ccn(-c2ncnc3c(C(=O)C(=O)N4CCN(C(=O)c5ccccc5)CC4)c[nH]c23)n1 [Example 13, 1-(7-(2-(4-Benzoylpiperazin-1-yl)-2-oxoacetyl)-5H -pyrrolo[3,2-d]pyrimidin-4-yl)-N,N-dimethyl-1H-pyrazole-3-carboxamide] | < 1000 nM
14 | CN1CCN(C(=O)c2ccn(-c3ncnc4c(C(=O)C(=O)N5CCN(C(=O)c6ccccc6)CC5)c[nH]c34)n2)CC1 [Example 14, 1-(4-Benzoylpiperazin-1-yl)-2-(4-(3-(1-methylpiperazine-4-carbonyl)-1H-pyrazol-1-yl)-5H-pyrrolo[3,2-d]pyrimidin-7-yl)ethane-1,2-dione] | < 1000 nM
15 | O=C(C(=O)N1CCN(C(=O)c2ccccc2)CC1)c1c[nH]c2c(-n3ccc(-c4ccccc4)n3)ncnc12 [Example 15, 1-(4-Benzoylpiperazin-1-yl)-2-(4-(3-phenyl-1H -pyrazol-1-yl)-5H-pyrrolo[3,2-d]pyrimidin-7-yl)ethane-1,2-dione] | < 1000 nM
16 | O=C(C(=O)N1CCN(C(=O)c2ccccc2)CC1)c1c[nH]c2c(-n3ccc(-c4ccc(F)cc4)n3)ncnc12 [Example 16, 1-(4-Benzoylpiperazin-1-yl)-2-(4-(3-(4-fluorophenyl)-1H-pyrazol-1-yl)-5H-pyrrolo[3,2-d]pyrimidin-7-yl)ethane-1,2-dione] | < 1000 nM
17 | COc1ccc(-c2ccn(-c3ncnc4c(C(=O)C(=O)N5CCN(C(=O)c6ccccc6)CC5)c[nH]c34)n2)cc1 [Example 17, 1-(4-Benzoylpiperazin-1-yl)-2-(4-(3-(4-methoxyphenyl)-1H-pyrazol-1-yl)-5H-pyrrolo[3,2-d]pyrimidin-7-yl)ethane-1,2-dione] | < 1000 nM
18 | COc1ccccc1-c1ccn(-c2ncnc3c(C(=O)C(=O)N4CCN(C(=O)c5ccccc5)CC4)c[nH]c23)n1 [Example 18, 1-(4-Benzoylpiperazin-1-yl)-2-(4-(3-(2-methoxyphenyl)-1H-pyrazol-1-yl)-5H-pyrrolo[3,2-d]pyrimidin-7-yl)ethane-1,2-dione] | < 1000 nM
19 | O=C(C(=O)N1CCN(C(=O)c2ccccc2)CC1)c1c[nH]c2c(-n3ccc(-c4cccc(C(F)(F)F)c4)n3)ncnc12 [Example 19, 1-(4-Benzoylpiperazin-1-yl)-2-(4-(3-(3-(trifluoromethyl)phenyl)-1H-pyrazol-1-yl)-5H-pyrrolo[3,2-d]pyrimidin-7-yl)ethane-1,2-dione] | < 1000 nM
20 | O=C(C(=O)N1CCN(C(=O)c2ccccc2)CC1)c1c[nH]c2c(-n3cncn3)ncnc12 [Example 20, 1-(4-(1H-1,2,4-Triazol-1-yl)-5H-pyrrolo[3,2-d]pyrimidin-7-yl)-2-(4-benzoylpiperazin-1-yl)ethane-1,2-dione] | < 1000 nM
21 | O=C(C(=O)N1CCN(C(=O)c2ccccc2)CC1)c1c[nH]c2c(-n3ccnn3)ncnc12 [Example 21, 1-(4-(1H-1,2,3-Triazol-1-yl)-5H-pyrrolo[3,2-d]pyrimidin-7-yl)-2-(4-benzoylpiperazin-1-yl)ethane-1,2-dione] | < 1000 nM
22 | O=C(C(=O)N1CCN(C(=O)c2ccccc2)CC1)c1c[nH]c2c(-c3cc[nH]n3)ncnc12 [Example 22, 1-(4-(1H-Pyrazol-3-yl)-5H-pyrrolo[3,2-d]pyrimidin-7-yl)-2-(4-benzoylpiperazin-1-yl)ethane-1,2-dione] | < 1000 nM
23 | O=C(C(=O)N1CCN(C(=O)c2ccccc2)CC1)c1c[nH]c2c(-c3ccccn3)ncnc12 [Example 24, 1-(4-Benzoylpiperazin-1-yl)-2-(4-(pyridin-2-yl)-5H -pyrrolo[3,2-d]pyrimidin-7-yl)ethane-1,2-dione] | < 1000 nM
24 | O=C(C(=O)N1CCN(C(=O)c2ccccc2)CC1)c1c[nH]c2c(-c3cccnc3)ncnc12 [Example 25, 1-(4-Benzoylpiperazin-1-yl)-2-(4-(pyridin-3-yl)-5H -pyrrolo[3,2-d]pyrimidin-7-yl)ethane-1,2-dione] | < 1000 nM
25 | O=C(C(=O)N1CCN(C(=O)c2ccccc2)CC1)c1c[nH]c2c(-c3ccncc3)ncnc12 [Example 26, 1-(4-Benzoylpiperazin-1-yl)-2-(4-(pyridin-4-yl)-5H -pyrrolo[3,2-d]pyrimidin-7-yl)ethane-1,2-dione] | < 1000 nM
26 | O=C(C(=O)N1CCN(C(=O)c2ccccc2)CC1)c1c[nH]c2c(-c3cnccn3)ncnc12 [Example 27, 1-(4-Benzoylpiperazin-1-yl)-2-(4-(pyrazin-2-yl)-5H -pyrrolo[3,2-d]pyrimidin-7-yl)ethane-1,2-dione] | < 1000 nM
27 | O=C(C(=O)N1CCN(C(=O)c2ccccc2)CC1)c1c[nH]c2c(-c3cncnc3)ncnc12 [Example 28, 1-(4-Benzoylpiperazin-1-yl)-2-(4-(pyrimidin-5-yl)-5H-pyrrolo[3,2-d]pyrimidin-7-yl)ethane-1,2-dione] | < 1000 nM
28 | O=C(C(=O)N1CCN(C(=O)c2ccccc2)CC1)c1c[nH]c2c(-c3ccnnc3)ncnc12 [Example 29, 1-(4-Benzoylpiperazin-1-yl)-2-(4-(pyridazin-4-yl)-5H-pyrrolo[3,2-d]pyrimidin-7-yl)ethane-1,2-dione] | < 1000 nM
